In general, MIC refers to the least concentration at which growth counts as inhibited. Low readings indicate a more susceptible organism, high ones a less susceptible organism.

The record followed here is ChEMBL document CHEMBL1144144, “Methylsulfomycin I, a new cyclic peptide antibiotic from a Streptomyces sp. HIL Y-9420704” (1999).

Converted amounts (≈) assume the structure as drawn.

The test system of experiment [1] is Enterococcus faecium. Put plainly: Antimicrobial activity against vancomycin and teicoplanin-resistant Enterococcus faecium P-1 relative to vancomycin. The experiment is classed as functional.
The next experiment relates to Enterococcus. Description: Antimicrobial activity against Enterococcus species. The experiment is classed as functional.
Experiment [2] concerns Staphylococcus haemolyticus. Put plainly: Antimicrobial activity against teicoplanin-resistant Staphylococcus haemolyticus 712 relative to vancomycin. The experiment is classed as functional.
Experiment [3] concerns Enterococcus equinus. Put plainly: Antimicrobial activity against vancomycin and teicoplanin-resistant Enterococcus equinus relative to vancomycin.
A further experiment concerns Staphylococcus aureus. Description: Antimicrobial activity against methicillin-resistant Staphylococcus aureus. The class given is functional.
For experiment [4], the system named is Enterococcus faecium. Put plainly: Antimicrobial activity against vancomycin and teicoplanin-resistant Enterococcus faecium R-1 relative to vancomycin. The experiment is classed as functional.
The subject of experiment [5] is Staphylococcus epidermidis. Put plainly: Antimicrobial activity against teicoplanin-resistant Staphylococcus epidermidis 823 relative to vancomycin. The class given is functional.
The subject of experiment [6] is Enterococcus faecium. Description: Antimicrobial activity against vancomycin and teicoplanin-resistant Enterococcus faecium R-2 relative to vancomycin. The class given is functional.
Experiment [7] has as its system Staphylococcus epidermidis. Description: Antimicrobial activity against teicoplanin-sensitive Staphylococcus epidermidis 825 relative to vancomycin. The experiment is classed as functional.
Experiment [8] concerns Staphylococcus haemolyticus. Put plainly: Antimicrobial activity against teicoplanin-sensitive Staphylococcus haemolyticus 712 relative to vancomycin. The class given is functional.
The test system of experiment [9] is Enterococcus faecium. Description: Antimicrobial activity against vancomycin and teicoplanin-resistant Enterococcus faecium P-1. The experiment is classed as functional.
Experiment [10] relates to Enterococcus faecium. Put plainly: Antimicrobial activity against vancomycin and teicoplanin-resistant Enterococcus faecium R-1. The experiment is classed as functional.
Experiment [11] relates to Staphylococcus epidermidis. Description: Antimicrobial activity against teicoplanin-sensitive Staphylococcus epidermidis 825. The experiment is classed as functional.
The subject of experiment [12] is Enterococcus faecium. Put plainly: Antimicrobial activity against vancomycin and teicoplanin-resistant Enterococcus faecium R-2. The class given is functional.
The test system of experiment [13] is Staphylococcus haemolyticus. Description: Antimicrobial activity against teicoplanin-sensitive Staphylococcus haemolyticus 712. The class given is functional.
Experiment [14] relates to Enterococcus equinus. Put plainly: Antimicrobial activity against vancomycin and teicoplanin-resistant Enterococcus equinus.

Regarding `C=C(NC(=O)C(=C)NC(=O)C(=C)NC(=O)c1ccc2c(n1)-c1nc(oc1C)C(=C)NC(=O)C(=C)NC(=O)c1nc(oc1C)/C(=C/C)NC(=O)c1csc(n1)[C@H](OC)NC(=O)c1nc(oc1C)/C(=C\C(C)O)NC(=O)[C@H]([C@@H](C)O)NC(=O)c1csc-2n1)C(N)=O` (stereo partly specified) [METHYLSULFOMYCIN I], the fold change (FC) with Enterococcus faecium [1] is over 800; in experiment [2], 12.4; in the experiment on Enterococcus equinus [3], over 800; in the experiment on Enterococcus faecium [4] it was over 800; in [5], 12.4; in the experiment with Enterococcus faecium [6] it was over 800. The “fold change (FC)” value in experiment [7] and in experiment [8] was 6.2 throughout. Further, the minimum inhibitory concentration (MIC) in the experiment on Enterococcus and in the experiment with Staphylococcus aureus was 0.06 µg/mL (≈ 0.0476 µM) throughout.
For the molecule `CN[C@H](CC(C)C)C(=O)N[C@H]1C(=O)N[C@@H](CC(N)=O)C(=O)N[C@H]2C(=O)N[C@H]3C(=O)N[C@H](C(=O)N[C@H](C(=O)O)c4cc(O)cc(O)c4-c4cc3ccc4O)[C@H](O)c3ccc(c(Cl)c3)Oc3cc2cc(c3O[C@@H]2O[C@H](CO)[C@@H](O)[C@H](O)[C@H]2O[C@H]2C[C@](C)(N)[C@H](O)[C@H](C)O2)Oc2ccc(cc2Cl)[C@H]1O` [VANCOMYCIN], the MIC is over 100 µg/mL against Enterococcus faecium [9]; over 100 µg/mL against Enterococcus faecium [10]; 0.78 µg/mL (≈ 0.538 µM) in experiment [11]; over 100 µg/mL in the experiment on Enterococcus faecium [12]; 0.78 µg/mL (≈ 0.538 µM) in experiment [13]; over 100 µg/mL against Enterococcus equinus [14].
